Test results taken from patent US10278959B2, “Ready to use ketorolac formulations” (RTU Pharmaceuticals, LLC, priority 2010, dated 2019).

Columns and labels:
Format in all cases: physicochemical
[1] = Acid-catalyzed degradation, HPLC purity
Experimental: (§1) Degradation products for ketorolac tromethamine were generated under acidic and basic conditions for reference when evaluating HPLC chromatograms for purity. This ensures differentiation between degradants, impurities, and peaks which are both impurities and degradants. For the acid-catalyzed degradation, 4.92 mg of ketorolac tromethamine was added to a scintillation vial, followed by 10 mL of H2O, and the pH of the resulting colorless solution was adjusted to pH 1.60 with H3PO4. Aliquots of this solution were placed in capped amber HPLC vials in an 85° C. oven for the indicated amount of time, then analyzed by HPLC using the purity method outlined in Table 3. For the base catalyzed degradation, 4.92 mg of ketorolac tromethamine was added to a scintillation vial, followed by 10 mL of H2O, and the resulting colorless solution was adjusted to pH 12.09 with NaOH. Aliquots of this solution were placed in capped amber HPLC vials in an 85° C. oven for the indicated amount of time, then analyzed by HPLC using the purity method outlined in Table 3.

[2] = Base-catalyzed degradation, HPLC purity
Experimental: as §1

[3] = Light Stability Study (ambient light), HPLC purity
Experimental: The clear scintillation vial was capped and placed on the windowsill, exposing the solution to both ambient light and temperature conditions. Aliquots (500 μL) were removed at various time points and diluted with an equal volume of H2O in an amber HPLC vial. The diluted solution was then analyzed by HPLC for the purity of ketorolac tromethamine.

[4] = Stability Study B in Baxter IntraVia bags, HPLC purity; settings: heat for extended periods of time
Experimental: Once all materials were added to the volumetric flask, it was filled to the line with H2O. The flask was magnetically stirred if any undissolved material was present. The formulations were then purged with N2 for 5 minutes before the bag filling process began. The Baxter IntraVia bags were filled by mass (80 g±1 g) using a peristaltic pump to feed the solution into each bag. A 2-way valve were placed in the solution filling line for sterile filtration and to regulate flow, respectively. For each formulation, 24 bags were filled.
All bags were used in the stability study without exposure to autoclave (or simulated autoclave) conditions. All bags were pulled within 1 day time points of 0, 4, 7, 14, 28 and 42 days and allowed to equilibrate to room temperature before sampling. Sampling of the bags for HPLC analysis occurred using a 5 cc disposable syringe with 21 gauge needle through the drug injection port. Approximately 1.5 mL of each formulation was transferred to an amber HPLC vial and analyzed within 12 hours of sampling.
This study included 3 formulations at 3 different temperatures (40° C., 60° C., and 80° C.) with time points over 6 weeks. Stability Study A provided information to structure Stability Study B with respect to the ideal parameters. […] Table 8 details the measured purity by HPLC of formulations 7, 8, and 10.

## O=C(c1ccccc1)c1ccc2n1CCC2C(=O)O (centres unmarked) [Ketorolac tromethamine]
[1]; pH 1.60, 85° C., 2.5 hours
  HPLC Purity: 98.96%
[1]; pH 1.60, 85° C., 4 hours
  HPLC Purity: 98.92%
[1]; pH 1.60, 85° C., 24 hours
  HPLC Purity: 98.87%
[1]; pH 1.60, 85° C., 40 hours
  HPLC Purity: 98.08%
[1]; pH 1.60 with H3PO4, 85° C., 1.5 hours
  HPLC Purity: 99.02%
[2]; pH 12.09, 85° C., 2.5 hours
  HPLC Purity: 99.66%
[2]; pH 12.09, 85° C., 4 hours
  HPLC Purity: 99.62%
[2]; pH 12.09, 85° C., 24 hours
  HPLC Purity: 99.28%
[2]; pH 12.09, 85° C., 40 hours
  HPLC Purity: 98.97%
[2]; pH 12.09 with NaOH, 85° C., 1.5 hours
  HPLC Purity: 99.67%
[3]; ambient light and temperature, clear vial, in H2O, 0 days
  Purity: 99.62%
[3]; ambient light, 1 day
  Purity: 99.62%
[3]; ambient light, 3 days
  Purity: 99.60%
[3]; ambient light, 5 days
  Purity: 99.61%
[3]; ambient light, 12 days
  Purity: 99.60%
[3]; ambient light, 41 days
  Purity: 97.03%
[3]; ambient light, 48 days
  Purity: 96.24%
[3]; ambient light, 62 days
  Purity: 93.27%
[3]; ambient light, 76 days
  Purity: 90.50%
[4]
  stability upon exposure to heat: stable
